Measurements reported in publication PMC12190436, “5-Ene-2-arylaminothiazol-4(5H)-ones Induce Apoptosis in Breast Cancer Cells” (Cells, 2025).

Columns and labels:
[1] = tested on: p53; assay: p53 concentration, SimpleStep ELISA; assay type: cell-based, human; conditions: 5 µM, 24 h, MCF-7
Method: To determine the effects of the new 4-thiazolidinone derivatives and the reference drug on the concentration of p53 and cytochrome C in MCF-7 cell lysates or supernatants after 24 h of treatment, highly sensitive SimpleStep ELISA (enzyme-linked immunosorbent assay) kits (Abcam, Cambridge, UK) were applied. The cells were collected and washed thrice with cold PBS and centrifuged at 1000× g for 5 min at 4 °C. Next, the cells were suspended in lysis buffer to acquire cell lysates. Concurrently, the supernatants, acquired after centrifugation, were frozen immediately at −80 °C. The standards, samples, and antibody cocktail were added to the appropriate microtiter plate wells, followed by 1 h incubation at room temperature. The content of microplate wells was extracted, and the wells were washed thrice. Afterwards, a TMB development solution was added to each well. The enzyme–substrate reaction was terminated with a stop solution. The change in color was assessed by UV-VIS Helios Gamma (Unicam/ThermoFisher Scientific Inc., Cleveland, OH, USA) at 450 ± 2 nm wavelength.
Both p53 and cytochrome C proteins play pivotal roles in the process of apoptosis. For this reason, concentrations of the mentioned proteins were measured in MCF-7 cells after 24 h treatment with the tested compounds (Les-6416, Les-6418, Les-6381, Les-6423, Les-6424) in concentrations of 5 µM.

[2] = tested on: MCF-7 cells; assay: Acridine orange/ethidium bromide staining, morphology; assay type: cell-based, human; conditions: 5 µM, 24 h, MCF-7, AO/EB staining
Method: To display morphological changes in the MCF-7 cells after 24 h of treatment by lead compound Les-6416 and the positive control doxorubicin, we performed acridine orange and ethidium bromide staining. MCF-7 cells were seeded in 6-well plates at 1 × 10^5 cells per well in 2 mL medium, followed by incubation for 24 h. Afterwards, the cells were treated with lead compound Les-6416 at a concentration equal to 5 µM and DOX in a concentration equal to 0.5 µM. Next, cells were washed with 1 mL of PBS per well. Subsequently, double staining was performed using 10 µL of AO and EB, incubated at room temperature for 10 min. After that, cells were washed with PBS. Images were obtained with the use of a Nikon ECLIPSE Ti fluorescence microscope (Nikon, Tokyo, Japan). Images were analyzed using ImageJ software version 1.54k (Bethesda, MD, USA).
To analyze morphological changes in MCF-7 cells after 24 h of treatment, we performed the double staining with acridine orange and ethidium bromide. This method provides the capability to observe different stages of cell death depending on cell membrane integrity and chromatin condensation. Green fluorescence can be observed due to acridine orange staining, that penetrates all cells, while red coloring is contributed to ethidium bromide, which can only penetrate cells with injured cell membranes. […]

[3] = tested on: SK-MEL-28; assay type: cell-based
[4] = tested on: SK-MEL-2; assay type: cell-based
[5] = tested on: PC-3; assay type: cell-based
[6] = tested on: Prostate Cancer; assay type: cell-based
[7] = tested on: SNB-75; assay type: cell-based
[8] = tested on: SW-620; assay type: cell-based
[9] = tested on: IGROV1; assay type: cell-based
[10] = tested on: OVCAR-4; assay type: cell-based
[11] = tested on: 786-0; assay type: cell-based
[12] = tested on: T-47D; assay type: cell-based
[13] = tested on: RPMI-8226; assay type: cell-based
[14] = tested on: SF-539; assay type: cell-based
[15] = tested on: OVCAR-8; assay type: cell-based
[16] = tested on: SF-268; assay type: cell-based
[17] = tested on: HS 578T; assay type: cell-based

COc1cc(NC2=NC(=O)C(=Cc3ccc4cc[nH]c4c3)S2)cc(OC)c1OC [Les-6416, 5-((1H-Indol-6-yl)methylene)-2-((3,4,5-trimethoxyphenyl)amino)thiazol-4(5H)-one]
Concentration of p53 [1]: 2.27 ± 0.55 ng/mL
morphological changes [2]: cell shrinkage and chromatin condensation

COc1cc(NC2=NC(=O)C(=Cc3c[nH]c4ccccc34)S2)cc(OC)c1OC [Les-6418, 5-((1H-Indol-3-yl)methylene)-2-((3,4,5-trimethoxyphenyl)amino)thiazol-4(5H)-one]
GI50 ([3]; Homo sapiens, SK-MEL-28, 48 h): 6.07 µM
CC50 ([3]; Homo sapiens, SK-MEL-28, 48 h, read-out: LC50 (the source's name)): 49.9 µM
TGI ([3]; SK-MEL-28, 48 h): 21.0 µM
SI (TGI) ([3]; SK-MEL-28, MG_MID_60/value): 0.89
GI50 ([4]; Homo sapiens, SK-MEL-2, 48 h): 1.45 µM
CC50 ([4]; Homo sapiens, SK-MEL-2, 48 h, read-out: LC50 (the source's name)): 43.1 µM
TGI ([4]; SK-MEL-2, 48 h): 12.2 µM
SI (TGI) ([4]; SK-MEL-2, MG_MID_60/value): 1.52
GI50 ([5]; Homo sapiens, PC-3, 48 h): 2.59 µM
CC50 ([5]; Homo sapiens, PC-3, 48 h, read-out: LC50 (the source's name)): 94.2 µM
TGI ([5]; PC-3, 48 h): 22.6 µM
SI (TGI) ([5]; PC-3, MG_MID_60/value): 0.82
GI50 ([6]; Homo sapiens, Prostate Cancer subpanel mean, read-out: MG_MID GI50): 3.61 µM
CC50 ([6]; Homo sapiens, Prostate Cancer subpanel mean, read-out: MG_MID LC50): 70.8 µM
MG_MID TGI ([6]; Prostate Cancer subpanel mean): 19.9 µM
SI (MG_MID TGI) ([6]; Prostate Cancer subpanel, MG_MID_60/value): 0.93
GI50 ([7]; Homo sapiens, SNB-75, 48 h): 1.24 µM
CC50 ([7]; Homo sapiens, SNB-75, 48 h, read-out: LC50 (the source's name)): 11.9 µM
TGI ([7]; SNB-75, 48 h): 3.63 µM
SI (TGI) ([7]; SNB-75, MG_MID_60/value): 5.12
GI50 ([8]; Homo sapiens, SW-620, 48 h): 3.1 µM
CC50 ([8]; Homo sapiens, SW-620, 48 h, read-out: LC50 (the source's name)): 85 µM
TGI ([8]; SW-620, 48 h): 21.8 µM
SI (TGI) ([8]; SW-620, MG_MID_60/value): 0.85
GI50 ([9]; Homo sapiens, IGROV-1, IGROV1, 48 h): 4.91 µM
CC50 ([9]; Homo sapiens, IGROV-1, IGROV1, 48 h, read-out: LC50 (the source's name)): 57.2 µM
TGI ([9]; IGROV1, 48 h): 21.6 µM
SI (TGI) ([9]; IGROV1, MG_MID_60/value): 0.86
GI50 ([10]; Homo sapiens, OVCAR-4, 48 h): 2.88 µM
CC50 ([10]; Homo sapiens, OVCAR-4, 48 h, read-out: LC50 (the source's name)): 35.3 µM
TGI ([10]; OVCAR-4, 48 h): 10.6 µM
SI (TGI) ([10]; OVCAR-4, MG_MID_60/value): 1.75
Growth % ([11]; 786-0, 10 μM, one dose, 48 h): −73.06%
TGI ([11]; 786-0, 48 h): 11.9 µM
SI (TGI) ([11]; 786-0, MG_MID_60/value): 1.56
GI50 ([11]; Homo sapiens, 786-0, 48 h): 2.72 µM
CC50 ([11]; Homo sapiens, 786-0, 48 h, read-out: LC50 (the source's name)): 55.7 µM
TGI ([12]; 48 h): 19.7 µM
GI50 ([12]; Homo sapiens, T47D, 48 h): 3.58 µM
CC50 ([12]; Homo sapiens, T47D, 48 h, read-out: LC50 (the source's name)): 61.2 µM
SI (TGI) ([12]; MG_MID_60/value): 0.94
GI50 ([13]; Homo sapiens, RPMI-8226, 48 h): 5.73 µM
CC50 ([13]; Homo sapiens, RPMI-8226, 48 h, read-out: LC50 (the source's name)): > 100 µM
TGI ([13]; RPMI-8226, 48 h): > 100 µM
SI (TGI) ([13]; RPMI-8226, MG_MID_60/value): 0.19
GI50 ([14]; Homo sapiens, SF-539, 48 h): 2.49 µM
CC50 ([14]; Homo sapiens, SF-539, 48 h, read-out: LC50 (the source's name)): 35.5 µM
Growth % ([14]; SF-539, 10 μM, one dose, 48 h): −85.30%
TGI ([14]; SF-539, 48 h): 9.95 µM
SI (TGI) ([14]; SF-539, MG_MID_60/value): 1.87
GI50 ([15]; Homo sapiens, OVCAR-8, 48 h): 10.6 µM
LC50 (50% lethal concentration) ([15]; Homo sapiens, OVCAR-8, 48 h): 70.1 µM
TGI ([15]; OVCAR-8, 48 h): 27.2 µM
SI (TGI) ([15]; OVCAR-8, MG_MID_60/value): 0.68
GI50 ([16]; Homo sapiens, SF-268, 48 h): 3.56 µM
CC50 ([16]; Homo sapiens, SF-268, 48 h, read-out: LC50 (the source's name)): 81.3 µM
TGI ([16]; SF-268, 48 h): 20.0 µM
SI (TGI) ([16]; SF-268, MG_MID_60/value): 0.93
TGI ([17]; 48 h): 11.9 µM
GI50 ([17]; Homo sapiens, 48 h): 2.33 µM
CC50 ([17]; Homo sapiens, 48 h, read-out: LC50 (the source's name)): > 100 µM
SI (TGI) ([17]; MG_MID_60/value): 1.56
